The source of these data is patent publication US20070219186A1, “Pyrazolo[1,5-A]pyrimidine derivatives and methods of use thereof” (priority 2006, published 2007).

In this assay the target is T1, human B-Raf (Homo sapiens, UniProt P15056).
T1 construct: Flag; GST; made in house; host or cells: Sf9 insect cells (B-Raf); E. coli (MEK1-GST)
Nature of the assay: B-Raf Kinase to MEK1 ELISA. To be noted: for IC50: median, cpd concentrations from 10 μM to 30 nM in half log dilutions, read-out: Median IC50; for inhibition at 10 µM: read-out: % Inhib./10 uM. Type of assay: biochemical. In short, it runs like this: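 Flag/GST-tagged human B-Raf (Sf9, ~20 ng/point) phosphorylates non-active GST-MEK1 (50 nM final) with ATP and MgCl2 in MOPS pH 7.2 buffer, 60 min at RT. Product is captured on anti-GST plates; MEK1 pSer217/221 is read by phospho-antibody plus europium conjugate (DELFIA).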

The structures appear in SMILES notation.

T1 sequence (P15056 whole entry): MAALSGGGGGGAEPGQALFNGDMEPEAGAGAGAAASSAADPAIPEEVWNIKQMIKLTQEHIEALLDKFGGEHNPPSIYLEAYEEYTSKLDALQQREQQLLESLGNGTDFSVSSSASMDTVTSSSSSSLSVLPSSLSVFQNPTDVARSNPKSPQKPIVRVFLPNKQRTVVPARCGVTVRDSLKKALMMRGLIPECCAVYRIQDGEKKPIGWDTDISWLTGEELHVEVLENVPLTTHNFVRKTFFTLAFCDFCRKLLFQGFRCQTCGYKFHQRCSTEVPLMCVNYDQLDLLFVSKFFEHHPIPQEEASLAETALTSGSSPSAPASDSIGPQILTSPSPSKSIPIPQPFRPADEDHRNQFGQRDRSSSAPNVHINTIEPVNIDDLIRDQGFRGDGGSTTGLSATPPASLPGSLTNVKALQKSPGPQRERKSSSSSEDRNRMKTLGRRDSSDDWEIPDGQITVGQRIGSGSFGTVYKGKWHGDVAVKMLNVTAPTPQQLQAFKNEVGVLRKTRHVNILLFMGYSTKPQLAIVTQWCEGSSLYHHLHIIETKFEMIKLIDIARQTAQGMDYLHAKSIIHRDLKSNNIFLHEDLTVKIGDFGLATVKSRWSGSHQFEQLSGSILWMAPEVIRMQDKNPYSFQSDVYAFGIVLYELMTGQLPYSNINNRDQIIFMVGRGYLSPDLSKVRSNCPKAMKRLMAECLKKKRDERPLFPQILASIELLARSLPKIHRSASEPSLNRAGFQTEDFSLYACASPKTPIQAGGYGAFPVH

With `O=C(Nc1cccc(-c2ccnc3cc(-c4cccnc4)nn23)c1)c1cccc(C(F)(F)F)c1` [Example 152, N-[3-(2-pyridin-3-ylpyrazolo[1,5-a]pyrimidin-7-yl)phenyl]-3-(trifluoromethyl)benzamide], the IC50 was greater than 10 µM.

On to `O=C(Nc1cccc(-c2ccnc3c(C(=O)NCCCN4CCOCC4)cnn23)c1)c1cccc(C(F)(F)F)c1` [Example 53, N-(3-morpholin-4-ylpropyl)-7-(3-{[3-(trifluoromethyl)benzoyl]amino}phenyl)pyrazolo[1,5-a]pyrimidine-3-carboxamide], for which the IC50 stood at 5 µM and the inhibition at 10 µM is 55%.

On to `CCOC(=O)c1cnn2c(-c3cccc(NC(=O)c4cccn4C)c3)ccnc12` [Example 215, ethyl7-(3-{[(1-methyl-1H-pyrrol-2-yl)carbonyl]amino}phenyl)pyrazolo[1,5-a]pyrimidine-3-carboxylate], for which the IC50 was greater than 10 µM and the inhibition at 10 µM turned out to be 0%.

For the compound `CCCNC(=O)c1cnn2c(-c3cccc(NC(=O)c4cccc(C(F)(F)F)c4)c3)ccnc12` [Example 46, N-propyl-7-(3-{[3-(trifluoromethyl)benzoyl]amino}phenyl)pyrazolo[1,5-a]pyrimidine-3-carboxamide], the inhibition at 10 µM was 54%.

Take `O=C(Nc1cccc(-c2ccnc3c(-c4ccncc4)cnn23)c1)Nc1ccc(F)c(C(F)(F)F)c1` [Example 193, N-[4-fluoro-3-(trifluoromethyl)phenyl]-N′-[3-(3-pyridin-4-ylpyrazolo[1,5-a]pyrimidin-7-yl)phenyl]urea]: the IC50 was found to be 0.5 µM and the inhibition at 10 µM was determined as 79%.

Consider `Cc1ccc(C(=O)Nc2cccc(-c3ccnc4c(-c5cccc(C#N)c5)cnn34)c2)cc1C(F)(F)F` [Example 182, N-{3-[3-(3-cyanophenyl)pyrazolo[1,5-a]pyrimidin-7-yl]phenyl}-4-methyl-3-(trifluoromethyl)benzamide], for which the IC50 was greater than 10 µM and the inhibition at 10 µM came to 29%.

On to `CCOC(=O)c1cnn2c(-c3cccc(NC(=O)Cc4ccc5c(c4)OCO5)c3)ccnc12` [Example 100, ethyl 7-{3-[(1,3-benzodioxol-5-ylacetyl)amino]phenyl}pyrazolo[1,5-a]pyrimidine-3-carboxylate], for which the IC50 is greater than 10 µM and the inhibition at 10 µM was found to be 2%.

With `CC(O)c1ccccc1-c1cnn2c(-c3cccc(NC(=O)c4cccc(C(F)(F)F)c4)c3)ccnc12` (stereo not drawn) [Example 303, N-(3-{3-[2-(1-hydroxyethyl)phenyl]pyrazolo[1,5-a]pyrimidin-7-yl}phenyl)-3-(trifluoromethyl)benzamide], the half-maximal inhibitory concentration (IC50) came out at 0.288 µM and the inhibition at 10 µM was 80%.

Turning to `O=C(Nc1cccc(-c2ccnc3cc(N4CCC[C@H]4CN4CCCC4)nn23)c1)c1cccc(C(F)(F)F)c1` [Example 211, N-(3-{2-[(2S)-2-(pyrrolidin-1-ylmethyl)pyrrolidin-1-yl]pyrazolo[1,5-a]pyrimidin-7-yl}phenyl)-3-(trifluoromethyl)benzamide], the IC50 is greater than 10 µM and the inhibition at 10 µM is 47%.

Consider `O=C(Nc1cccc(-c2ccnc3cc(-c4ccncc4)nn23)c1)c1cc(Cl)ccc1Br` [Example 241, 2-bromo-5-chloro-N-[3-(2-pyridin-4-ylpyrazolo[1,5-a]pyrimidin-7-yl)phenyl]benzamide], for which the IC50 is greater than 10 µM and the inhibition at 10 µM was 34%.

In the case of `Cn1cccc1C(=O)Nc1cccc(-c2ccnc3cc(-c4ccncc4)nn23)c1` [Example 236, 1-methyl-N-[3-(2-pyridin-4-ylpyrazolo[1,5-a]pyrimidin-7-yl)phenyl]-1H-pyrrole-2-carboxamide], the inhibition at 10 µM was 50%.

As to `CCOC(=O)c1cnn2c(-c3cccc(NC(=O)c4cc(C(C)(C)C)nn4C)c3)ccnc12` [Example 243, ethyl7-(3-{[(3-tert-butyl-1-methyl-1H-pyrazol-5-yl)carbonyl]amino}phenyl)pyrazolo[1,5-a]pyrimidine-3-carboxylate], the IC50 was greater than 10 µM and the inhibition at 10 µM is 18%.
